Assays:
[1] = Recovery of ginsenosides from urine and feces for 48 h after RGE, amoxicillin vs control; conditions: for Fecal recovery, change by the amoxicillin treatment: feces 48 h after single oral RGE 2 g/kg, vs control; for Ginsenosides identified in urine: urine 48 h after single oral RGE 2 g/kg
Description: Aliquots (200 μL) of an IS (0.05 ng/mL berberine in methanol) were added to 30 μL of plasma or urine samples. Aliquots (600 μL) of an IS methanol solution containing 0.05 ng/mL berberine were added to 100 μL of 10% feces homogenate samples. […] After centrifugation, 200 μL of the supernatant was transferred to a clean tube and dried under a nitrogen stream at 40 °C. The residue was reconstituted using 100 μL of 70% methanol supplemented with 0.1% formic acid, and a 10-μL aliquot was injected into the LC–MS/MS system.

[2] = Recovery of ginsenosides from urine and feces for 48 h after RGE, amoxicillin with or without LAB; conditions: feces 48 h after single oral RGE 2 g/kg; Amoxicillin + LAB vs amoxicillin
Description: (§1) Mice received amoxicillin (n = 12, 20 mg/kg, dissolved in water at 2 mL/kg, twice daily) for 3 days via oral gavage. From the 4th day, mice from the LAB + amoxicillin treatment group received LAB (2 g/kg suspended in water at 2 mL/kg, once daily) for 7 days via oral gavage. Mice from the amoxicillin treatment group received water (2 mL/kg, once daily) for 7 days via oral gavage.

[3] = test system: lactic acid bacteria (LAB); assay: In vitro RGE fermentation with LAB; conditions: 7 days incubation
[4] = test system: lactic acid bacteria (LAB); assay: Incubation of single ginsenoside with LAB (formation rate of metabolite ginsenoside); format: in vitro ADME; conditions: 7 days, 37 °C, MRS broth
Description: To compare the involvement of LAB on individual ginsenoside, an aliquot (10 μL) of each ginsenoside stock solution (10 mM in methanol) was mixed with autoclaved MRS broth (550 mg/10 mL in distilled water) and added 2 g of LAB (contained 1 billion CFU). Then, the mixture was incubated for 7 days in a shaking incubator at 37 °C and 300 rpm. For the analysis of ginsenosides, 0.2 mL aliquot of incubation mixture was collected every 24 h for 7 days. The incubation medium was diluted 100-fold with distilled water and stored at −80 °C. For the ginsenoside analysis, 200 μL of an IS solution (0.05 ng/mL berberine in methanol) was added to 30 μL of 100-fold diluted samples.

[5] = Pharmacokinetics of ginsenosides after single oral RGE after amoxicillin with or without repeated LAB treatment; conditions: single oral RGE 2 g/kg
Description: as §1
Blood sampling was performed using a sparse sampling method via the right or left retro-orbital vein under isoflurane anesthesia at 0, 2, 4, and 8 h after the RGE administration through the heparinized capillary tube. […] After centrifugation of the blood samples at 10,000× g for 1 min, 30 μL aliquots of plasma were stored at −80 °C until the analysis of the ginsenosides. Subsequent protocols were identical to the amoxicillin treated group.
Pharmacokinetic parameters were calculated using WinNonlin (version 5.1, Pharsight, Mountain View, CA, USA) by a non-compartmental analysis.

| Fecal recovery, change by the amoxicillin treatment [1] | Ginsenosides identified in urine [1] | Fecal recovery, change by LAB treatment [2] | Alteration of ginsenoside by fermentation of RGE with LAB [3] | Metabolite formation on incubation of single ginsenoside with LAB [4] | Plasma exposure / pharmacokinetic parameters, LAB treatment compared with amoxicillin group [5] | Compound |
| --- | --- | --- | --- | --- | --- | --- |
| increased | identified in urine | significantly decreased | most significant decrease | produced GRh1 |  | CC(C)=CCC[C@](C)(O[C@@H]1O[C@H](CO)[C@@H](O)[C@H](O)[C@H]1O)[C@H]1CC[C@]2(C)[C@@H]1[C@H](O)C[C@@H]1[C@@]3(C)CC[C@H](O)C(C)(C)[C@@H]3[C@@H](O[C@@H]3O[C@H](CO)[C@@H](O)[C@H](O)[C@H]3O[C@@H]3O[C@@H](C)[C@H](O)[C@@H](O)[C@H]3O)C[C@]12C [GRe] |
| increased | identified in urine | significantly decreased | gradual decrease | produced GRh1 |  | CC(C)=CCC[C@](C)(O[C@@H]1O[C@H](CO)[C@@H](O)[C@H](O)[C@H]1O)[C@H]1CC[C@]2(C)[C@@H]1[C@H](O)C[C@@H]1[C@@]3(C)CC[C@H](O)C(C)(C)[C@@H]3[C@@H](O[C@@H]3O[C@H](CO)[C@@H](O)[C@H](O)[C@H]3O)C[C@]12C [GRg1] |
| increased |  | significantly decreased | gradual decrease | produced GRh1 |  | CC(C)=CCC[C@](C)(O)[C@H]1CC[C@]2(C)[C@@H]1[C@H](O)C[C@@H]1[C@@]3(C)CC[C@H](O)C(C)(C)[C@@H]3[C@@H](O[C@@H]3O[C@H](CO)[C@@H](O)[C@H](O)[C@H]3O[C@@H]3O[C@H](CO)[C@@H](O)[C@H](O)[C@H]3O)C[C@]12C [GRf] |

| Compound | Fecal recovery, change by the amoxicillin treatment [1] | Ginsenosides identified in urine [1] | Fecal recovery, change by LAB treatment [2] | Alteration of ginsenoside by fermentation of RGE with LAB [3] | Metabolite formation on incubation of single ginsenoside with LAB [4] | Plasma exposure / pharmacokinetic parameters, LAB treatment compared with amoxicillin group [5] |
| --- | --- | --- | --- | --- | --- | --- |
| CC(C)=CCC[C@](C)(O[C@@H]1O[C@H](CO)[C@@H](O)[C@H](O)[C@H]1O)[C@H]1CC[C@]2(C)[C@@H]1[C@H](O)C[C@@H]1[C@@]3(C)CC[C@H](O[C@@H]4O[C@H](CO)[C@@H](O)[C@H](O)[C@H]4O)C(C)(C)[C@@H]3CC[C@]12C [GF2] | significantly decreased |  | remained similar | gradual decrease | the highest among the ginsenoside formation rate | increased |

From article PMC8469489, “Effect of Lactic Acid Bacteria on the Pharmacokinetics and Metabolism of Ginsenosides in Mice” (Pharmaceutics, 2021)
